Assay results as given in patent US5759991A, “Neurotrophic peptide derivatives” (Sumitomo Pharmaceutical Company, Limited., priority 1991, dated 1998).

Tests used:
[1] = system: tissue of medial septum nuclei; experiment: acetylcholine synthesis activity of cultured medial septum nucleus tissue (method of Ojika et al.); format: cell-based; conditions: human-derived HCNP peptide compared with rat-derived HCNP
Description: The neurotrophic activity (also called neurotrophic factor activity) refers to, for example, an action of regulating differentiation and maturation of neuronal cells, namely, an action of accelerating the acetylcholine synthesis in the tissue of medial septum nuclei which is rich in cholinergic neurons.
The human-derived neurotrophic peptide or its derivatives of the present invention can regulate differentiation and maturation of neuronal cells. That is, the neurotrophic peptide and derivatives thereof accelerate the acetylcholine synthesis in the tissue of medial septum nuclei. The biological activity can be determined by the method of Ojika, K., et a. (Reference 66).
Medial septal nucleus was extracted from the brains of 16-day-old SD rat embryos and microscopically dissected into small pieces. […]
Except in the experiment for the study of sequential growth, the cultured tissue on the 9th day was washed with a Tris-HCl (pH 7.4) buffered Tyrode's solution, followed by preincubation in a high-K (55 mM KCl) Tyrode's solution, and then incubation in a Tyrode's solution containing ^3 H-choline chloride at 37° C. for 30 minutes. […] The choline uptake and Ach-productivity were expressed as amounts per one piece of cultured tissue. Choline acetyl-transferase (CATase) was measured using ^14 C-acetyl-CoA, according to the method of Fonnum, biochemical Journal, 115, 465-472 (1969). […]

[2] = system: tissue of medial septum nuclei; conditions: rat medial septum nuclei acetylcholinergic neuron; Reference 1; cited from earlier work

| Substance | neurotrophic activity (acceleration of acetylcholine synthesis) [1] | production of acetylcholine [2] |
| --- | --- | --- |
| H-PVDLSKWSGPL-OH [hHCNP, H-Pro-Val-Asp-Leu-Ser-Lys-Trp-Ser-Gly-Pro-Leu-OH] | neurotrophic activity similar to rat-derived HCNP was noted | – |
| HCNP: hippocampal cholinergic neurotrophic peptide composed of 11 amino acid residues isolated from hippocampal tissue of neonatal rat (AADISQWAGPL) | – | enhances production of acetylcholine |
